{"source": "ChEMBL document CHEMBL1201862", "about": "“PubChem BioAssay data set” (2004)", "test_in_all_cases": "DTP human tumour cell line panel, 48 h", "key": {"786-0": {"tested_on": "786-0"}, "A498": {"tested_on": "A498"}, "A549": {"tested_on": "A549"}, "ACHN": {"tested_on": "ACHN"}, "BT-549": {"tested_on": "BT-549"}, "CAKI-1": {"tested_on": "CAKI-1"}, "CCRF-CEM": {"tested_on": "CCRF-CEM"}, "COLO 205": {"tested_on": "COLO 205"}, "DLD-1": {"tested_on": "DLD-1"}, "DMS-114": {"tested_on": "DMS-114"}, "DMS-273": {"tested_on": "DMS-273"}, "DU-145": {"tested_on": "DU-145"}, "EKVX": {"tested_on": "EKVX"}, "HCC 2998": {"tested_on": "HCC 2998"}, "HCT-116": {"tested_on": "HCT-116"}, "HCT-15": {"tested_on": "HCT-15"}, "HL-60": {"tested_on": "HL-60"}, "HOP-62": {"tested_on": "HOP-62"}, "HOP-92": {"tested_on": "HOP-92"}, "HT-29": {"tested_on": "HT-29"}, "Hs-578T": {"tested_on": "Hs-578T"}, "IGROV-1": {"tested_on": "IGROV-1"}, "K562": {"tested_on": "K562"}, "KM-20L2": {"tested_on": "KM-20L2"}, "KM12": {"tested_on": "KM12"}, "LOX IMVI": {"tested_on": "LOX IMVI"}, "LXFL 529": {"tested_on": "LXFL 529"}, "M14": {"tested_on": "M14"}, "M19-MEL": {"tested_on": "M19-MEL"}, "MCF7": {"tested_on": "MCF7"}, "MDA-MB-231": {"tested_on": "MDA-MB-231"}, "MDA-MB-435": {"tested_on": "MDA-MB-435"}, "MDA-N": {"tested_on": "MDA-N"}, "MOLT-4": {"tested_on": "MOLT-4"}, "Malme-3M": {"tested_on": "Malme-3M"}, "NCI-H226": {"tested_on": "NCI-H226"}, "NCI-H23": {"tested_on": "NCI-H23"}, "NCI-H460": {"tested_on": "NCI-H460"}, "NCI-H522": {"tested_on": "NCI-H522"}, "NCI/ADR-RES": {"tested_on": "NCI/ADR-RES"}, "OVCAR-3": {"tested_on": "OVCAR-3"}, "OVCAR-4": {"tested_on": "OVCAR-4"}, "OVCAR-5": {"tested_on": "OVCAR-5"}, "OVCAR-8": {"tested_on": "OVCAR-8"}, "PC-3": {"tested_on": "PC-3"}, "RPMI-8226": {"tested_on": "RPMI-8226"}, "RXF 393": {"tested_on": "RXF 393"}, "RXF 631": {"tested_on": "RXF 631"}, "SF-268": {"tested_on": "SF-268"}, "SF-295": {"tested_on": "SF-295"}, "SF-539": {"tested_on": "SF-539"}, "SK-MEL-28": {"tested_on": "SK-MEL-28"}, "SK-MEL-2": {"tested_on": "SK-MEL-2"}, "SK-MEL-5": {"tested_on": "SK-MEL-5"}, "SK-OV-3": {"tested_on": "SK-OV-3"}, "SN12C": {"tested_on": "SN12C"}, "SNB-19": {"tested_on": "SNB-19"}, "SNB-75": {"tested_on": "SNB-75"}, "SR": {"tested_on": "SR"}, "SW-620": {"tested_on": "SW-620"}, "T47D": {"tested_on": "T47D"}, "TK-10": {"tested_on": "TK-10"}, "U-251": {"tested_on": "U-251"}, "UACC-257": {"tested_on": "UACC-257"}, "UACC-62": {"tested_on": "UACC-62"}, "UO-31": {"tested_on": "UO-31"}, "XF498": {"tested_on": "XF498"}}, "note": "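In this assay, cells in 96-well plates receive the compound at five concentrations for 48 hours. Endpoints are linearly interpolated between the surrounding concentrations. GI50 = concentration required for 50% inhibition of growth.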 Calls of active or inactive are those of the source. Cut-off read from the data, not from the text of the source: active = GI50 up to about 1.1 µM and inactive = higher."}
{"smiles": "CC(C)c1ccc(C2NC(S)=NC3=C2c2ccccc2C3=O)cc1", "note": "(configuration not stated)", "values": [{"measurement": "GI50", "setting": "786-0", "value": "22.5 µM (inactive)"}, {"measurement": "GI50", "setting": "A498", "value": "36.7 µM (inactive)"}, {"measurement": "GI50", "setting": "A549", "value": "28.6 µM (inactive)"}, {"measurement": "GI50", "setting": "ACHN", "value": "27.7 µM (inactive)"}, {"measurement": "GI50", "setting": "BT-549", "value": "17.1 µM (inactive)"}, {"measurement": "GI50", "setting": "CAKI-1", "value": "22.8 µM (inactive)"}, {"measurement": "GI50", "setting": "CCRF-CEM", "value": "26.5 µM (inactive)"}, {"measurement": "GI50", "setting": "COLO 205", "value": "26.4 µM (inactive)"}, {"measurement": "GI50", "setting": "DLD-1", "value": "48.5 µM (inactive)"}, {"measurement": "GI50", "setting": "DMS-114", "value": "21.3 µM (inactive)"}, {"measurement": "GI50", "setting": "DMS-273", "value": "30 µM (inactive)"}, {"measurement": "GI50", "setting": "DU-145", "value": "16.7 µM (inactive)"}, {"measurement": "GI50", "setting": "EKVX", "value": "33.4 µM (inactive)"}, {"measurement": "GI50", "setting": "HCC 2998", "value": "> 36.6 µM (inactive)"}, {"measurement": "GI50", "setting": "HCT-116", "value": "23.6 µM (inactive)"}, {"measurement": "GI50", "setting": "HCT-15", "value": 20.6, "unit": "µM"}, {"measurement": "GI50", "setting": "HL-60", "value": "8.75 µM (inactive)"}, {"measurement": "GI50", "setting": "HOP-62", "value": "25.8 µM (inactive)"}, {"measurement": "GI50", "setting": "HOP-92", "value": "22.3 µM (inactive)"}, {"measurement": "GI50", "setting": "HT-29", "value": "25.5 µM (inactive)"}, {"measurement": "GI50", "setting": "Hs-578T", "value": "14.8 µM (inactive)"}, {"measurement": "GI50", "setting": "IGROV-1", "value": "27 µM (inactive)"}, {"measurement": "GI50", "setting": "K562", "value": "22.6 µM (inactive)"}, {"measurement": "GI50", "setting": "KM-20L2", "value": "25.6 µM (inactive)"}, {"measurement": "GI50", "setting": "KM12", "value": "27.4 µM (inactive)"}, {"measurement": "GI50", "setting": "LOX IMVI", "value": "20.6 µM (inactive)"}, {"measurement": "GI50", "setting": "LXFL 529", "value": "38.3 µM (inactive)"}, {"measurement": "GI50", "setting": "M14", "value": "28 µM (inactive)"}, {"measurement": "GI50", "setting": "M19-MEL", "value": "38.9 µM (inactive)"}, {"measurement": "GI50", "setting": "MCF7", "value": "10.2 µM (inactive)"}, {"measurement": "GI50", "setting": "MDA-MB-231", "value": "16.9 µM (inactive)"}, {"measurement": "GI50", "setting": "MDA-MB-435", "value": "6.97 µM (inactive)"}, {"measurement": "GI50", "setting": "MDA-N", "value": "5.31 µM (inactive)"}, {"measurement": "GI50", "setting": "MOLT-4", "value": "24.4 µM (inactive)"}, {"measurement": "GI50", "setting": "Malme-3M", "value": "26.2 µM (inactive)"}, {"measurement": "GI50", "setting": "NCI-H226", "value": "34.4 µM (inactive)"}, {"measurement": "GI50", "setting": "NCI-H23", "value": "23.6 µM (inactive)"}, {"measurement": "GI50", "setting": "NCI-H460", "value": "29.2 µM (inactive)"}, {"measurement": "GI50", "setting": "NCI-H522", "value": "17.3 µM (inactive)"}, {"measurement": "GI50", "setting": "NCI/ADR-RES", "value": "15.1 µM (inactive)"}, {"measurement": "GI50", "setting": "OVCAR-3", "value": "26.2 µM (inactive)"}, {"measurement": "GI50", "setting": "OVCAR-4", "value": "21.6 µM (inactive)"}, {"measurement": "GI50", "setting": "OVCAR-5", "value": "34 µM (inactive)"}, {"measurement": "GI50", "setting": "OVCAR-8", "value": "32.1 µM (inactive)"}, {"measurement": "GI50", "setting": "PC-3", "value": "11.3 µM (inactive)"}, {"measurement": "GI50", "setting": "RPMI-8226", "value": "23.2 µM (inactive)"}, {"measurement": "GI50", "setting": "RXF 393", "value": "10.3 µM (inactive)"}, {"measurement": "GI50", "setting": "RXF 631", "value": "54 µM (inactive)"}, {"measurement": "GI50", "setting": "SF-268", "value": "19.9 µM (inactive)"}, {"measurement": "GI50", "setting": "SF-295", "value": "20.5 µM (inactive)"}, {"measurement": "GI50", "setting": "SF-539", "value": "18.7 µM (inactive)"}, {"measurement": "GI50", "setting": "SK-MEL-28", "value": "21.1 µM (inactive)"}, {"measurement": "GI50", "setting": "SK-MEL-2", "value": "17.4 µM (inactive)"}, {"measurement": "GI50", "setting": "SK-MEL-5", "value": "20.1 µM (inactive)"}, {"measurement": "GI50", "setting": "SK-OV-3", "value": "25.4 µM (inactive)"}, {"measurement": "GI50", "setting": "SN12C", "value": "24.7 µM (inactive)"}, {"measurement": "GI50", "setting": "SNB-19", "value": "23.8 µM (inactive)"}, {"measurement": "GI50", "setting": "SNB-75", "value": "15.7 µM (inactive)"}, {"measurement": "GI50", "setting": "SR", "value": "8.95 µM (inactive)"}, {"measurement": "GI50", "setting": "SW-620", "value": "23.4 µM (inactive)"}, {"measurement": "GI50", "setting": "T47D", "value": "18.2 µM (inactive)"}, {"measurement": "GI50", "setting": "TK-10", "value": "34 µM (inactive)"}, {"measurement": "GI50", "setting": "U-251", "value": "26.7 µM (inactive)"}, {"measurement": "GI50", "setting": "UACC-257", "value": "> 41.4 µM (inactive)"}, {"measurement": "GI50", "setting": "UACC-62", "value": "12 µM (inactive)"}, {"measurement": "GI50", "setting": "UO-31", "value": "21.5 µM (inactive)"}, {"measurement": "GI50", "setting": "XF498", "value": "32.4 µM (inactive)"}]}
